The text below walks through data of US12448383B2, “Compounds and methods for treatment of viral infections” (priority 2022, dated 2025).

A short description of data set [1]: CC50 MT4 cytotoxicity (Cell-Titer Glo). The class given is cell-based. The conditions noted are these: human. Summed up: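 Uninfected MT-4 and HEp-2 cells cultured 4-5 days at 37° C with 3-fold serially diluted compound (15 nM to 100,000 nM). Viability read by Cell-Titer Glo luminescence; untreated and 2 μM puromycin wells set 100% and 0%. CC50 from non-linear regression as concentration reducing viability by 50%.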

For data set [2], the system named is SARS Coronavirus 2 recombinant with NanoLuc (SARS-CoV2-NLuc) in A549-hACE2 cells. In words: microbe, parasite or virus in culture. In kind it is cell-based. The conditions noted are these: A549; read-out: EC50 SARS CoV2 NanoLuc A549 384.
The nature of data set [3]: GI S9 stability - no PMSF. In kind it is in vitro ADME. Details: GIS9-HUMAN-NoPMSF T1/2: unit: min. Particulars: human intestinal S9, PMSF-free; for half-life at 2 µM: pH 7.4, read-out: GIS9-HUMAN-NoPMSF T1/2. Summed up: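 Compounds were incubated at 2 μM with PMSF-free intestinal S9 (1 mg/mL protein) in 100 mM PBS, pH 7.4, sampling at 6 time points over 120 min. Parent disappearance and formation of the nucleoside metabolite Reference Compound A were quantified by LC-MS (Q-Exactive) using analyte/internal standard peak area ratios.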

The test system of data set [4] is Respiratory syncytial virus recombinant with luciferase (RSV-Luc5) in Normal Human Bronchial Epithelial (NHBE) cells. In words: microbe, parasite or virus in culture. The class given is cell-based. Particulars: read-out: EC50 RSVFluc-NHBE 384 V2.
A short description of data set [5]: physchem.
A short description of data set [6]: Plasma stability. In kind it is in vitro ADME. Details: unit not given here. Particulars: 37° C., 2 μM substrate. Summed up:
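Reaction mixture was sampled at 0.05, 0.5, 1, 2, 3 and 4 hr into quench solution containing internal standard, then centrifuged and diluted with water. Remaining analyte was measured by LC-MS on a Q-Exactive using a formic acid/acetonitrile gradient, with 5 ppm mass tolerance.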

In data set [7] the test system is Caco-2 cells (clone C2BBe1). Kind of data set: CACO-2 permeability. In kind it is in vitro ADME. Also noted: unit not given here. The conditions noted are these: for DM Caco2 A to B: apical to basolateral, donor pH 6.5, receiver pH 7.4; for DM Caco2 B to A: basolateral to apical. Summed up:
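Caco-2 monolayers grown 21 days on collagen-coated transwells and checked for integrity by TEER. Donor buffer was HBSS/HEPES/glucose pH 6.5 with 200 μM BNPP; receiver was pH 7.4 with BSA. Compounds were dosed apically or basolaterally for A-to-B and B-to-A transport, with receiver sampling at 1 and 2 h, LC-MS/MS analysis and percent recovery.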
(In general: Caco-2 monolayers are a common model of the intestinal barrier.)

Structures are written as SMILES.

`CCCCCCCCCCCCCCCCCCOC(=O)OC[C@H]1O[C@@](C#N)(c2ccc3c(N)ncnn23)[C@H](O)[C@@H]1O` [Compound 126, ((2R,3S,4R,5R)-5-(4-aminopyrrolo[2,1-f][1,2,4]triazin-7-yl)-5-cyano-3,4-dihydroxytetrahydrofuran-2-yl)methyl octadecyl carbonate]: the CC50 (usually the concentration at which the toxic effect on the cells reaches its halfway point) in data set [1] was found to be 27.7 µM. In addition, the half-maximal effective concentration (EC50) – broadly, the concentration that produces a half-maximal response – in data set [2] was 1.61 µM. In addition, in data set [3], the half-life at 2 µM was found to be 1.63 h. The 50% effective concentration (EC50) in data set [4] was 0.517 µM. For the same compound, the logD – broadly, the decadic logarithm of the distribution of all forms, ionised or not, between an organic phase and buffer at a given pH – in data set [5] is above 5.7. In data set [6], the “STA Human Plasma 37” value came to 79.1. Further, in data set [7], the “DM Caco2 A to B” value is 0.01 and the “DM Caco2 B to A” value turned out to be 0.03.
`N#C[C@@]1(c2ccc3c(N)ncnn23)O[C@H](COC(=O)OC23CC(C(F)(F)F)(C2)C3)[C@@H](O)[C@H]1O` [Compound 139, [(2R,3S,4R,5R)-5-(4-aminopyrrolo[2,1-f][1,2,4]triazin-7-yl)-5-cyano-3,4-dihydroxy-tetrahydrofuran-2-yl]methyl [3-(trifluoromethyl)-1-bicyclo[1.1.1]pentanyl]carbonate] gave a CC50 in data set [1] above 50 µM. Moreover, in data set [3], the half-life at 2 µM stood at 0.0228 h. In data set [4], the EC50 was determined as 1.64 µM. Moreover, the log distribution coefficient (logD) in data set [5] came out at 2.2. Also, the “STA Human Plasma 37” value in data set [6] was determined as 150.07. In data set [7], the “DM Caco2 A to B” value amounted to 0.99 and the “DM Caco2 B to A” value was determined as 12.98.
Regarding `N#C[C@@]1(c2ccc3c(N)ncnn23)O[C@H](COC(=O)OCCCCCC(=O)O)[C@@H](O)[C@H]1O` [Compound 140, 6-(((((2R,3S,4R,5R)-5-(4-aminopyrrolo[2,1-f][1,2,4]triazin-7-yl)-5-cyano-3,4-dihydroxytetrahydrofuran-2-yl)methoxy)carbonyl)oxy)hexanoic acid], the cytotoxic concentration (CC50) in data set [1] was above 50 µM. In addition, in data set [2], the concentration giving a half-maximal response (EC50) is above 50 µM. In data set [3], the half-life at 2 µM was 13.1 h. In addition, the half-maximal effective concentration (EC50) in data set [4] is above 50 µM. For the same compound, in data set [5], the logD was below 0.3. Besides, the “STA Human Plasma 37” value in data set [6] worked out at 1322.1. In addition, in data set [7], the “DM Caco2 A to B” value turned out to be 0.04 and the “DM Caco2 B to A” value was 0.12.
The compound `N#C[C@@]1(c2ccc3c(N)ncnn23)O[C@H](COC(=O)OCCCC(=O)O)[C@@H](O)[C@H]1O` [Compound 141, 4-(((((2R,3S,4R,5R)-5-(4-aminopyrrolo[2,1-f][1,2,4]triazin-7-yl)-5-cyano-3,4-dihydroxytetrahydrofuran-2-yl)methoxy)carbonyl)oxy)butanoic acid] yielded a CC50 in data set [1] above 50 µM. The EC50 in data set [2] is above 50 µM. For the same compound, the “GIS9-HUMAN-NoPMSF T1/2” value in data set [3] is on record as 789. The EC50 in data set [4] was above 50 µM. In addition, in data set [5], the log distribution coefficient (logD) was below 0.3. Besides, in data set [6], the “STA Human Plasma 37” value came out at 902.37. Also, in data set [7], the “DM Caco2 A to B” value is 0.05 and the “DM Caco2 B to A” value came to 0.08.
For the compound `N#C[C@@]1(c2ccc3c(N)ncnn23)O[C@H](COC(=O)OCCCCC(=O)O)[C@@H](O)[C@H]1O` [Compound 142, 5-(((((2R,3S,4R,5R)-5-(4-aminopyrrolo[2,1-f][1,2,4]triazin-7-yl)-5-cyano-3,4-dihydroxytetrahydrofuran-2-yl)methoxy)carbonyl)oxy)pentanoic acid], the CC50 in data set [1] is above 50 µM. Further, the concentration for a half-maximal effect (EC50) in data set [2] is above 50 µM. For the same compound, in data set [3], the “GIS9-HUMAN-NoPMSF T1/2” value came to 789. Also, the EC50 in data set [4] is above 50 µM. This compound also came in with a logD in data set [5] below 0.3. The “STA Human Plasma 37” value in data set [6] worked out at 1584. Moreover, in data set [7], the “DM Caco2 A to B” value is 0.02 and the “DM Caco2 B to A” value was 0.07.
Consider `N#C[C@@]1(c2ccc3c(N)ncnn23)O[C@H](COC(=O)OCCCCCCC(=O)O)[C@@H](O)[C@H]1O` [Compound 143, 7-(((((2R,3S,4R,5R)-5-(4-aminopyrrolo[2,1-f][1,2,4]triazin-7-yl)-5-cyano-3,4-dihydroxytetrahydrofuran-2-yl)methoxy)carbonyl)oxy)heptanoic acid], for which, in data set [1], the CC50 is above 50 µM. Further, the EC50 in data set [2] is 35.4 µM; in data set [4] it was above 50 µM. Besides, the “GIS9-HUMAN-NoPMSF T1/2” value in data set [3] is recorded as 789. The same compound registered a logD in data set [5] below 0.3. Also, the “STA Human Plasma 37” value in data set [6] stood at 800.58.
In data set [1], `CC(C)OC(=O)[C@H](CCOC(=O)OC[C@H]1O[C@@](C#N)(c2ccc3c(N)ncnn23)[C@H](O)[C@@H]1O)N(C)C` [Compound 146, isopropyl (2S)-4-[[(2R,3S,4R,5R)-5-(4-aminopyrrolo[2,1-f][1,2,4]triazin-7-yl)-5-cyano-3,4-dihydroxy-tetrahydrofuran-2-yl]methoxycarbonyloxy]-2-(dimethylamino)butanoate] returned a 50% cytotoxic concentration (CC50) above 50 µM. For the same compound, the EC50 in data set [2] was determined as 7.68 µM. Also, the half-life at 2 µM in data set [3] was determined as 2.9 h. Also, the half-maximal effective concentration (EC50) in data set [4] amounted to 8.25 µM. Also, the pH-dependent lipophilicity (logD) in data set [5] stood at 1.5. Also, in data set [6], the “STA Human Plasma 37” value is on record as 497.93. In addition, in data set [7], the “DM Caco2 A to B” value amounted to 0.06 and the “DM Caco2 B to A” value turned out to be 7.15.
Consider `C[C@@H](OC(=O)OC[C@H]1O[C@@](C#N)(c2ccc3c(N)ncnn23)[C@H](O)[C@@H]1O)[C@@H](C(=O)OCC1CCCC1)N(C)C` [Compound 148, (2S,3R)-cyclopentylmethyl 3-(((((2R,3S,4R,5R)-5-(4-aminopyrrolo[2,1-f][1,2,4]triazin-7-yl)-5-cyano-3,4-dihydroxytetrahydrofuran-2yl)methoxy)carbonyl)oxy)-2-(dimethylamino)butanoate], for which, in data set [1], the CC50 is above 50 µM. The EC50 came out at 2.05 µM in data set [2] and 2.1 µM in data set [4]. Further, the logD in data set [5] amounted to 2.7.
Compound `C[C@@H](OC(=O)OC[C@H]1O[C@@](C#N)(c2ccc3c(N)ncnn23)[C@H](O)[C@@H]1O)[C@@H](C(=O)OC1CCCC1)N(C)C` [Compound 149, cyclopentyl O-((((2R,3S,4R,5R)-5-(4-aminopyrrolo[2,1-f][1,2,4]triazin-7-yl)-5-cyano-3,4-dihydroxytetrahydrofuran-2-yl)methoxy)carbonyl)-N,N-dimethyl-L-threoninate] showed a 50% cytotoxic concentration (CC50) in data set [1] above 50 µM. The figures for the EC50 in data set [2] and in data set [4] were 2.42 µM and 2.55 µM, respectively. The compound also displayed a logD in data set [5] of 2.2.
`C[C@@H](OC(=O)OC[C@H]1O[C@@](C#N)(c2ccc3c(N)ncnn23)[C@H](O)[C@@H]1O)[C@@H](C(=O)OC1CCOCC1)N(C)C` [Compound 150, tetrahydro-2H-pyran-4-yl O-((((2R,3S,4R,5R)-5-(4-aminopyrrolo[2,1-f][1,2,4]triazin-7-yl)-5-cyano-3,4-dihydroxytetrahydrofuran-2-yl)methoxy)carbonyl)-N,N-dimethyl-L-threoninate] came in with a CC50 in data set [1] above 50 µM. Also, the figures for the EC50 in data set [2] and in data set [4] were 2.37 µM and 3.08 µM, respectively. Moreover, in data set [5], the pH-dependent lipophilicity (logD) came out at 1.3.
The matching figures for `CC(C)OC(=O)[C@H](COC(=O)OC[C@H]1O[C@@](C#N)(c2ccc3c(N)ncnn23)[C@H](O)[C@@H]1O)N(C)C` [Compound 151, isopropyl O-((((2R,3S,4R,5R)-5-(4-aminopyrrolo[2,1-f][1,2,4]triazin-7-yl)-5-cyano-3,4-dihydroxytetrahydrofuran-2-yl)methoxy)carbonyl)-N,N-dimethyl-L-serinate]: above 50 µM, 2.76 µM, 2.89 µM and 1.3.
In turn, `CN(C)[C@@H](COC(=O)OC[C@H]1O[C@@](C#N)(c2ccc3c(N)ncnn23)[C@H](O)[C@@H]1O)C(=O)OCC1CCCC1` [Compound 152, cyclopentylmethyl O-((((2R,3S,4R,5R)-5-(4-aminopyrrolo[2,1-f][1,2,4]triazin-7-yl)-5-cyano-3,4-dihydroxytetrahydrofuran-2-yl)methoxy)carbonyl)-N,N-dimethyl-L-serinate] showed a CC50 in data set [1] above 50 µM. Also, the EC50 was found to be 1.28 µM in data set [2] and 3.63 µM in data set [4]. Moreover, the logD in data set [5] was 2.2.
Take `CN(C)[C@@H](COC(=O)OC[C@H]1O[C@@](C#N)(c2ccc3c(N)ncnn23)[C@H](O)[C@@H]1O)C(=O)OC1CCCC1` [Compound 153, cyclopentyl O-((((2R,3S,4R,5R)-5-(4-aminopyrrolo[2,1-f][1,2,4]triazin-7-yl)-5-cyano-3,4-dihydroxytetrahydrofuran-2-yl)methoxy)carbonyl)-N,N-dimethyl-L-serinate]: the CC50 in data set [1] was above 50 µM. Also, the concentration giving a half-maximal response (EC50) in data set [2] amounted to 2.67 µM; in data set [4], 3.24 µM. In data set [5], this compound came in with a logD of 1.7.
